Experimental data reported in PubChem BioAssay (NCI).
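1) Cells in 96-well plates. 2) Compound, 48 h, 5 concentrations. 3) Linear interpolation between surrounding doses. 4) Unreached endpoint = highest concentration. GI50: concentration for 50% inhibition of growth. TGI: total growth inhibition.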

Experiments:
Test in all cases: NCI-60 cell line screen, 48 h
[1] = tested on: HT29 colon
[2] = tested on: K-562 leukemia
[3] = tested on: MALME-3M melanoma
[4] = tested on: NCI-H23 lung
[5] = tested on: NCI-H460 lung
[6] = tested on: RPMI-8226 leukemia
[7] = tested on: SN12C renal
[8] = tested on: SW-620 colon
[9] = tested on: UACC-257 melanoma
[10] = tested on: SK-OV-3 ovarian

Structure (SMILES)	TGI [1] [µM]	TGI [2] [µM]	TGI [3] [µM]	TGI [4] [µM]	TGI [5] [µM]	TGI [6] [µM]	TGI [7] [µM]	TGI [8] [µM]	TGI [9] [µM]	TGI [10] [µM]	GI50 [1] [nM]	GI50 [2] [nM]	GI50 [3] [nM]	GI50 [4] [nM]	GI50 [5] [nM]	GI50 [6] [nM]	GI50 [10] [nM]	GI50 [7] [nM]	GI50 [8] [nM]	GI50 [9] [nM]
c1ccc2c(c1)c1ccccc1n2Cn1c2ccccc2c2ccccc21	> 100	> 100	> 100	> 100	> 100	> 100	> 100	> 100	> 100	–	–	–	–	–	–	–	–	–	–	–
CCOC(=O)/C=C/c1c(C)[nH]c(=O)[nH]c1=O	> 250	> 250	> 250	> 250	> 250	> 250	> 250	> 250	> 250	> 141	–	–	–	–	–	–	–	–	–	–
O=C(NN1C(=O)C(Cl)C1c1cccc([N+](=O)[O-])c1)c1ccccc1O (centres undefined)	> 100	> 100	> 100	> 100	> 100	> 100	> 100	> 100	> 100	> 100	–	–	–	–	–	–	–	–	–	–
CCOC(=O)NC(Nc1cc(Cl)ccc1OC)(C(F)(F)F)C(F)(F)F	> 100	> 100	> 100	> 100	> 100	> 100	> 100	> 100	> 100	> 100	–	–	–	–	–	–	–	–	–	–
C/C(=N\NC(=S)N1CCC(N2CCCCC2)CC1)c1ccccn1	9.88	> 100	> 100	12	7.23	> 29.4	8.17	12.2	8.93	11.6	–	–	–	–	–	–	–	–	–	–
O=C1CCC[C@H]2O[C@@H](COC(=O)c3ccccc3)C[C@H]2O1	> 100	> 100	–	> 100	> 100	> 100	> 100	> 100	> 100	> 100	–	–	–	–	–	–	–	–	–	–
O=C1C(CO)=C[C@H](O)[C@H]2O[C@@H]12	> 625	439	319	588	420	332	265	284	387	561	–	–	–	–	–	–	–	–	–	–
Cc1ccc(Cl)cc1N=NC(=O)NNc1cc(Cl)ccc1C	80.6	> 100	64.6	44.3	39	> 100	80.8	–	–	49.5	–	–	–	–	–	–	–	–	–	–
CCOc1cc(/C=C/C(=O)C(C(=O)/C=C/c2ccc(OC(=O)CNc3nc4ccccc4[nH]3)c(OCC)c2)C(=O)CNc2nc3ccccc3[nH]2)ccc1OC(=O)CNc1nc2ccccc2[nH]1	2.56	2.75	5.93	9.71	4.44	2.51	5.61	2.95	8.73	11.9	1290	1440	1750	2500	1920	754	3170	2210	1600	2850
O=C(N/N=C\c1cccc2ccccc12)Nc1ccccc1	> 100	> 100	> 100	> 100	> 100	> 100	> 100	> 100	> 100	> 100	–	–	–	–	–	–	–	–	–	–
c1cc2c3c(c1)c1cc4c(cc1c[n+]3CC2)OCO4	67	32.3	3.88	13.8	12.2	14	9.01	109	13.5	97.2	–	–	–	–	–	–	–	–	–	–
COc1cc(-c2ccc(N=Nc3ccc4c(S(=O)(=O)O)cc(S(=O)(=O)O)c(N)c4c3O)c(OC)c2)ccc1N=Nc1ccc2c(S(=O)(=O)O)cc(S(=O)(=O)O)c(N)c2c1O	> 100	> 100	> 100	> 100	> 100	> 100	> 100	> 100	> 100	> 100	–	–	–	–	–	–	–	–	–	–
COc1cccc2c1C(=O)c1c(O)c3c(c(O)c1C2=O)C[C@@](O)(C(=O)COC(=O)c1ccccc1)C[C@@H]3OC1CC(N)C(O)C(C)O1 (some centres undefined)	0.273	0.327	0.652	–	0.182	0.61	1.12	0.253	1.27	1.44	102	104	136	–	16.7	193	264	93.6	44.8	262
